# Legend:
# adenosine A2A receptor [1] = molecular target: T1, adenosine A2A receptor (Homo sapiens (Human), UniProt P29274); experiment: Radioligand binding competition assay, adenosine A2A receptor
# Procedure: Binding of selected compounds to the adenosine A1, A2A, A2B, and A3 receptors was tested using a binding competition assay.
# The general protocol for the radioligand binding competition assay was as follows. Competition binding was performed in duplicate in the wells of a 96 well plate (Master Block, Greiner, 786201) containing binding buffer (optimized for each receptor), membrane extracts (amount of protein/well optimized for each receptor), radiotracer (final concentration optimized for each receptor), and test compound. Nonspecific binding was determined by co-incubation with 200-fold excess of cold competitor. The samples were incubated in a final volume of 0.1 mL at 25° C. for 60 minutes and then filtered over filter plates. Filters were washed six times with 0.5 mL of ice-cold washing buffer (optimized for each receptor) and 50 μL of Microscint 20 (Packard) were added on each filter. The filter plates were sealed, incubated 15 min on an orbital shaker and scintillation counted with a TopCount for 30 sec/filter.
# For the adenosine A2A receptor radioligand binding assay, the following modifications were made to the general protocol. GF/C filters (Perkin Elmer, 6005174), presoaked in 0.01% Brij for 2 h at room temperature were used. Filters were washed six times with 0.5 mL of ice-cold washing buffer (50 mM Tris pH 7.4) and 50 μL of Microscint 20 (Packard) was added in each well. The plates were then incubated for 15 min on an orbital shaker and then counted with a TopCount™ for 1 min/well.
# Another radioligand binding assay was used to evaluate the binding affinity for the adenosine A2A receptor assay was performed in duplicate in the wells of a 384 plate. Assay buffer contained DPBS 500 mM, MgCl2 0.1 mM, and 1% DMSO. Membrane-bead suspension was prepared by mixing 25.98 μL of human adenosine A2A membrane preparation (Perkin Elmer, RBHA2AM400UA) at 33.4 pg/mL, 28 μL of ADA at 20 pg/mL, and 932 μL of SPA beads at 3.33 mg/mL) and incubated the mixture for 20 min at room temperature. Mixed 20 μL of radiotracer (^3H-SCH 58261) at 15 nM to each well containing test articles at various concentrations and centrifuge the plate at 1000 rpm for 1 minute. Added 30 μL of the membrane-bead suspension to each well. Sealed the plates and incubated for 1 hr at room temperature with vigorous mixing on a plate mixer. Plates were read on Microbeta^2 (Perkin Elmer, 2450-0010).
# CHO-K1-A3 cell membranes, 1.5 μg/well; a binding buffer comprising HEPES 25 mM pH 7.4, MgCl2 5 mM, CaCl2 1 mM, 0.5% BSA; a wash buffer comprising HEPES 25 mM pH 7.4, MgCl2 5 mM, CaCl2 1 mM; a Unifilter GF/C—treated for 2 h with 0.5% BS; and 0.4 nM of ^125I-AB-MECA as the tracer. The results of the binding assay are shown in Table B1-1 and are shown as percent residual binding at a given concentration. Percent of residual binding means binding of a compound in the presence of competitor normalized to the amount of binding in the absence of competitor. […] For example, compound 1 strongly bound to A2A (30% residual binding at a concentration of 100 nM), A1 (−3% residual binding at 300 nM) and A2B, (−9% residual binding at 300 nM) but weakly bound to A3 (96% residual binding at 300 nM).
# adenosine A2A receptor [2] = molecular target: T1, adenosine A2A receptor; experiment: cAMP assay in HEK-293 cells expressing human recombinant adenosine A2A receptor; assay type: cell-based; conditions: HEK293; for inhibition at 0.1 µM: 100 nM compound, read-out: A2a cAMP % inh @ 100 nM
# Procedure: The functional activity of compounds was tested using one of the two assays to detect the present of cAMP. Activation of G-protein coupled receptors (such as A2A) results in activation of adenylcyclase which converts ATP into cAMP which is used as a downstream signaling molecule. Therefore, molecules which act as GPCR (or specifically A2A receptor) antagonists cause a decrease in intracellular cAMP concentration.
# Both assays used HEK-293 cells expressing human recombinant adenosine A2A receptor were grown prior to the test in media without antibiotic. Assay 1: The cells were detached by gentle flushing with PBS-EDTA (5 mM EDTA), recovered by centrifugation and suspended in assay buffer (KRH: 5 mM KCl, 1.25 mM MgSO4, 124 mM NaCl, 25 mM HEPES, 13.3 mM Glucose, 1.25 mM KH2PO4, 1.45 mM CaCl2, 0.5 g/L BSA, supplemented with Rolipram).
# 12 μL of cells were mixed with 6 μL of the test compound at increasing concentrations and then incubated for 10 min. Thereafter 6 μL of the reference agonist was added at a final concentration corresponding to the historical EC80. The plates were then incubated for 30 min at room temperature. After addition of the lysis buffer and 1 hour incubation, cAMP concentrations were estimated, according to the manufacturer specification, with the HTRF® kit.
# Assay 2: 100 nL of test articles at 100× of final concentration were transferred to assay plate by Echo. Cells were washed twice with 5 mL of PBS […]. After aspirating the PBS and adding 1.5 mL versine, cells were incubated at 37° C. for 2-5 min. After centrifugation, 4 mL of medium was added and adjusted cell density to 5,000 cells/well with stimulation buffer. 10 μL of cells were aliquoted to the assay plate, centrifuged at 1000 rpm for 1 minute, and incubated for 60 minutes at room temperature. 5 μL 4× Eu-cAMP tracer solution and 5 μL 4× Ulight™-anti-cAMP solution were added to assay plate, followed by centrifugation and 60-minute incubation at room temperature. Plates were read on EnVision.
# T1 sequence (P29274 whole entry): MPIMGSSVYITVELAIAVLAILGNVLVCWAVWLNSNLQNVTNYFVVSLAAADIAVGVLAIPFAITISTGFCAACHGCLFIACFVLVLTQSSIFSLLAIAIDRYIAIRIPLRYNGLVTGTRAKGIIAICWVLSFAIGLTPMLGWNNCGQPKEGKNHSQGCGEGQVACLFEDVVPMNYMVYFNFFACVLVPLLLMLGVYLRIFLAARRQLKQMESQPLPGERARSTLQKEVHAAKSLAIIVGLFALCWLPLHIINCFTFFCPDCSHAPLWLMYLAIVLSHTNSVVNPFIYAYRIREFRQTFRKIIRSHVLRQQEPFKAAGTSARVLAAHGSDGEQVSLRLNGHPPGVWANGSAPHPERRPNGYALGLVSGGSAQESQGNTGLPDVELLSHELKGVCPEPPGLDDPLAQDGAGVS
Compound,A2A radioligand binding competition assay % residual binding @ 3000 nM (adenosine A2A receptor [1]; 3000 nM compound),inhibition at 0.1 µM (adenosine A2A receptor [2]),further results
"Cc1cc(-c2cc3c(=O)cc[nH]c3nc2-c2ccccc2)cc2cccnc12 [Compound No. 1.23, 6-(8-methylquinolin-6-yl)-7-phenyl-1,8-naphthyridin-4(1H)-one]",22/ND/ND/ND %,77%,–
"O=c1ccc2cc(-c3ccc4nccnc4c3)c(-c3ccccc3)nc2[nH]1 [Compound No. 1.10, 7-phenyl-6-(quinoxalin-6-yl)-1,8-naphthyridin-2(1H)-one]",60/ND/ND/ND %,40%,–
"O=c1cc[nH]c2nc(-c3ccccc3)c(-c3cnc4ncccc4c3)cc12 [Compound No. 1.11, 2-phenyl-[3,3′-bi(1,8-naphthyridin)]-5(8H)-one]",51/ND/ND/ND %,49%,–
"O=c1cc[nH]c2nc(-c3ccccc3)c(-c3cc(Cl)c4[nH]cnc4c3)cc12 [Compound No. 1.17, 6-(7-chloro-1H-benzo[d]imidazol-5-yl)-7-phenyl-1,8-naphthyridin-4(1H)-one]",14/ND/ND/ND %,85%,–
"Cc1cc(-c2cc3ccc(=O)[nH]c3nc2-c2ccccc2)cc(C)n1 [Compound No. 1.33, 6-(2,6-dimethylpyridin-4-yl)-7-phenyl-1,8-naphthyridin-2(1H)-one]",–,–,"inhibition at 3 µM (adenosine A2A receptor [1]; 3000 nM compound, read-out: A2a binding % inh @ 3000 nM): 30%; inhibition at 0.3 µM (adenosine A2A receptor [2]; 300 nM compound, read-out: A2a cAMP % inh @ 300 nM): 60%"

# The next lines start with results.
A2A radioligand binding competition assay % residual binding @ 3000 nM (adenosine A2A receptor [1]; 3000 nM compound),inhibition at 0.1 µM (adenosine A2A receptor [2]),Compound,further results
19%,82%,"O=c1ccc2cc(-c3ccc4ncccc4c3)c(-c3ccccc3)nc2[nH]1 [1.4, 7-phenyl-6-(quinolin-6-yl)-1,8-naphthyridin-2(1H)-one]",A2A radioligand binding competition assay % residual binding @ 100 nM (adenosine A2A receptor [1]; 100 nM compound): 71%; A2A radioligand binding competition assay % residual binding @ 300 nM (adenosine A2A receptor [1]; 300 nM compound): 79%; A2A radioligand binding competition assay % residual binding @ 1000 nM (adenosine A2A receptor [1]; 1000 nM compound): 17%
50/ND/ND/ND %,50%,"Cc1cc(-c2cc3c(=O)cc[nH]c3nc2-c2ccccc2)cc(C)n1 [1.3, 6-(2,6-dimethylpyridin-4-yl)-7-phenyl-1,8-naphthyridin-4(1H)-one]",–
